The source of these data is patent publication US20120053053A1, “PYRIMIDINE DERIVATIVES AND THEIR USE AS HERBICIDES” (SYNGENTA CROP PROTECTION, LLC, priority 2009, published 2012).

Holding throughout (format): in vivo
In test [1] the test system is Alopecurus myosuroides (ALOMY). Kind of test: Post-emergence biological efficacy (percentage damage). The following applies: Alopecurus myosuroides, 312 h, dose 1,000 g/ha, evaluated after 13 days, 100=total damage, 0=no damage. Put shortly:
(§1)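 Post-emergence glasshouse test: plants sprayed 8 days after sowing (24/16 °C day/night, 14 h light, 65% humidity) at 250 or 1000 g/ha, formulated in acetone/water 50:50 with 0.5% Tween 20. Damage scored visually 13 days after treatment on a 0–100 scale (100 = total damage).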

Test [2] deals with Setaria faberi (SETFA). The test is described as above. The conditions noted are these: Setaria faberi, 312 h, dose 1,000 g/ha, evaluated after 13 days, 100=total damage, 0=no damage. Put shortly: as §1
Test [3] concerns Echinochloa crus-galli (ECHCG). Described as above. The following applies: Echinochloa crus-galli, 312 h, dose 1,000 g/ha, evaluated after 13 days, 100=total damage, 0=no damage. In short, it runs like this: as §1
Test [4] has as its system Amaranthus retoflexus (AMARE). The description is as above. The following applies: Amaranthus retroflexus, 312 h, dose 1,000 g/ha, evaluated after 13 days, 100=total damage, 0=no damage. In short, it runs like this: as §1
In test [5] the test system is Ipomea hederaceae (IPOHE). Described as above. The conditions noted are these: Ipomoea hederacea, 312 h, dose 1,000 g/ha, evaluated after 13 days, 100=total damage, 0=no damage. In short, it runs like this:
as §1

Test [6] concerns Solanum nigrum (SOLNI). The description is as above. The conditions noted are these: Solanum nigrum, 312 h, dose 1,000 g/ha, evaluated after 13 days, 100=total damage, 0=no damage. In short, it runs like this: as §1
The test system of test [7] is Alopecurus myosuroides (ALOMY). Kind of test: Pre-emergence biological efficacy (percentage damage). The following applies: Alopecurus myosuroides, 312 h, dose 1,000 g/ha, evaluated after 13 days, 100=total damage, 0=no damage. Put shortly: (§2)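 Sow seeds in pots of standard soil; hold 1 day in glasshouse (24/16 °C, 14 h light, 65% humidity). Spray aqueous solution from acetone/water (50:50) with 0.5% Tween 20 at 250 or 1000 g/ha. Grow on, watering twice daily; rate damage at 13 days.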

Test [8] relates to Setaria faberi (SETFA). Described as above. The conditions noted are these: Setaria faberi, 312 h, dose 1,000 g/ha, evaluated after 13 days, 100=total damage, 0=no damage. In short, it runs like this:
as §2

The test system of test [9] is Echinochloa crus-galli (ECHCG). Described as above. The following applies: Echinochloa crus-galli, 312 h, dose 1,000 g/ha, evaluated after 13 days, 100=total damage, 0=no damage. In short, it runs like this: as §2
Test [10] deals with Amaranthus retoflexus (AMARE). The test is described as above. The conditions noted are these: Amaranthus retroflexus, 312 h, dose 1,000 g/ha, evaluated after 13 days, 100=total damage, 0=no damage. In short, it runs like this:
as §2

For test [11], the system named is Ipomea hederaceae (IPOHE). Described as above. The conditions noted are these: Ipomoea hederacea, 312 h, dose 1,000 g/ha, evaluated after 13 days, 100=total damage, 0=no damage. In short, it runs like this: as §2
Test [12] concerns Solanum nigrum (SOLNI). Described as above. The following applies: Solanum nigrum, 312 h, dose 1,000 g/ha, evaluated after 13 days, 100=total damage, 0=no damage. In short, it runs like this: as §2

Regarding `C=Cc1c(N)nc(-c2ccc(F)c(OC)c2)nc1C(=O)OC` [Compound 42-61, 4-Amino-5-ethenyl-2-(4-fluoro-3-methoxyphenyl)-6-methoxycarbonyl-pyrimidine], the pest or weed control (usually the degree to which the test organism was suppressed or injured, in per cent) at 1000 g/ha in test [1] amounted to 30%; in test [2], 40%; in test [3], 30%; in test [4], 100%; in test [5], 10%; in test [6] it was 30%. Also, the pest or weed control at 1000 g/ha amounted to 10% in test [7]; 20% in test [8]; 10% in test [9]; 60% in [10]; 0% in [11]; 20% in test [12].
Turning to `C=Cc1c(N)nc(-c2ccc(F)c(C(F)(F)F)c2)nc1C(=O)OC` [Compound 43-61, 4-Amino-5-ethenyl-2-(4-fluoro-3-trifluoromethyl-phenyl)-6-methoxycarbonyl-pyrimidine], the pest or weed control at 1000 g/ha in test [1] stood at 30%; in test [2], 20%; in [3], 30%; in [4], 20%; in [5], 10%; in [6] it was 70%. Further, the pest or weed control at 1000 g/ha in [7] was 30%; in test [8] it was 50%; in [9], 70%; in [10], 60%; in test [11] it was 10%; in test [12] it was 70%.
Consider `C=Cc1c(N)nc(-c2ccc(F)c(Cl)c2)nc1C(=O)OC` [Compound 44-61, 4-Amino-2-(3-chloro-4-fluorophenyl)-5-ethenyl-6-methoxycarbonyl-pyrimidine], for which the pest or weed control at 1000 g/ha in test [1] amounted to 40%; in test [2] it was 60%; in test [3], 50%; in test [4], 100%; in [5] it was 30%; in [6] it was 90%. The pest or weed control at 1000 g/ha came out at 20% in test [7]; 30% in test [8]; 40% in test [9]; 50% in test [10]; 10% in test [11]; 40% in [12].
Take `C=Cc1c(N)nc(-c2ccc(F)c(C)c2)nc1C(=O)OC` [Compound 45-61, 4-Amino-5-ethenyl-2-(4-fluoro-3-methylphenyl)-6-methoxycarbonyl-pyrimidine]: the pest or weed control at 1000 g/ha is 50% in test [1]; 50% in [2]; 40% in [3]; 100% in [4]; 30% in [5]; 70% in test [6]. In addition, the pest or weed control at 1000 g/ha in test [7] was found to be 50%; in test [8], 50%; in [9] it was 40%; in test [10] it was 100%; in [11] it was 0%; in test [12] it was 40%.
In the case of `C=Cc1c(N)nc(-c2ccc(OC(F)(F)F)cc2)nc1C(=O)OC` [Compound 47-61, 4-Amino-5-ethenyl-6-methoxycarbonyl-2-(4-trifluoromethoxy-phenyl)-pyrimidine], the pest or weed control at 1000 g/ha in test [1] was found to be 10%; in [2], 10%; in test [3], 10%; in test [4], 100%; in test [5] it was 10%; in test [6] it was 70%. The pest or weed control at 1000 g/ha in [7], in [8], in test [9], in test [10], in test [11] and in test [12] was 0% throughout.
In the case of `COC(=O)c1nc(-c2ccc(C)c(OC)c2F)nc(N)c1C` [Compound 60-41], the pest or weed control at 1000 g/ha in test [1] came out at 40%; in test [2], 10%; in test [3] it was 30%; in [4], 100%; in test [5], 40%; in test [6], 100%. The pest or weed control at 1000 g/ha is 20% in test [7]; 10% in test [8]; 10% in test [9]; 0% in test [10]; 10% in test [11]; 40% in [12].
Take `C=Cc1c(N)nc(-c2cc(F)cc(Cl)c2)nc1C(=O)OC` [Compound 61-61, 4-Amino-2-(3-chloro-5-fluorophenyl)-5-ethenyl-6-methoxycarbonyl-pyrimidine]: the pest or weed control at 1000 g/ha in test [1] is 0%; in test [2], 0%; in test [3], 0%; in test [4], 10%; in [5], 0%; in [6] it was 20%. Further, the pest or weed control at 1000 g/ha in [7] worked out at 0%; in test [8], 0%; in test [9], 0%; in [10], 0%; in test [11] it was 0%; in test [12], 30%.
Turning to `C=Cc1c(N)nc(SC)nc1C(=O)OC` [Compound 62-61, 4-amino-5-ethenyl-6-methoxycarbonyl-2-methylthiopyrimidine], the pest or weed control at 1000 g/ha in test [1] was 0%; in test [2], 10%; in [3], 0%; in [4] it was 100%; in test [5], 90%; in test [6], 90%. Moreover, the pest or weed control at 1000 g/ha is 0% in [7]; 0% in test [8]; 0% in [9]; 100% in test [10]; 100% in [11]; 100% in [12].
Turning to `C=Cc1c(N)nc(-c2cc(F)c(F)c(F)c2)nc1C(=O)OC` [Compound 63-61, 4-Amino-5-ethenyl-6-methoxycarbonyl-2-(3,4,5-trifluorophenyl)-pyrimidine], the pest or weed control at 1000 g/ha was 0% in test [1]; 0% in test [2]; 0% in [3]; 0% in test [4]; 20% in test [5]; 20% in [6]. In addition, the pest or weed control at 1000 g/ha in test [7], in test [8], in test [9], in [10], in [11] and in test [12] was 0% in each case.
On to `C=Cc1ccc(-c2nc(N)c(C=C)c(C(=O)OC)n2)c(F)c1N(C)C` [Compound 64-61, 4-amino-2-(3-dimethylamino-4-ethenyl-2-fluorophenyl)-5-ethenyl-6-methoxycarbonylpyrimidine], for which the pest or weed control at 1000 g/ha in [1] came to 10%; in test [2], 30%; in test [3], 10%; in test [4] it was 100%; in test [5], 10%; in test [6], 60%. Also, the pest or weed control at 1000 g/ha came out at 10% in test [7]; 10% in [8]; 10% in test [9]; 30% in test [10]; 0% in test [11]; 10% in [12].
